In ChEMBL document CHEMBL1806461, “Identification of MK-5710 ((8aS)-8a-methyl-1,3-dioxo-2-[(1S,2R)-2-phenylcyclopropyl]-N-(1-phenyl-1H-pyrazol-5-yl)hexahydroimid azo[1,5-a]pyrazine-7(1H)-carboxamide), a potent smoothened antagonist for use in Hedgehog pathway dependent malignancies, part 1” (Bioorg Med Chem Lett, 2011):
Active and inactive are the calls of the source. No cut-off for these calls is given here.

Target: T1, Protein smoothened (Homo sapiens, UniProt Q99835)
Assay: Displacement of [125I]-PA cyclopamine from smoothened expressed in african green monkey COS-1 cells after 10 mins by autoradiography
Format: cell-based
Conditions: not given

T1 sequence (Q99835 whole entry): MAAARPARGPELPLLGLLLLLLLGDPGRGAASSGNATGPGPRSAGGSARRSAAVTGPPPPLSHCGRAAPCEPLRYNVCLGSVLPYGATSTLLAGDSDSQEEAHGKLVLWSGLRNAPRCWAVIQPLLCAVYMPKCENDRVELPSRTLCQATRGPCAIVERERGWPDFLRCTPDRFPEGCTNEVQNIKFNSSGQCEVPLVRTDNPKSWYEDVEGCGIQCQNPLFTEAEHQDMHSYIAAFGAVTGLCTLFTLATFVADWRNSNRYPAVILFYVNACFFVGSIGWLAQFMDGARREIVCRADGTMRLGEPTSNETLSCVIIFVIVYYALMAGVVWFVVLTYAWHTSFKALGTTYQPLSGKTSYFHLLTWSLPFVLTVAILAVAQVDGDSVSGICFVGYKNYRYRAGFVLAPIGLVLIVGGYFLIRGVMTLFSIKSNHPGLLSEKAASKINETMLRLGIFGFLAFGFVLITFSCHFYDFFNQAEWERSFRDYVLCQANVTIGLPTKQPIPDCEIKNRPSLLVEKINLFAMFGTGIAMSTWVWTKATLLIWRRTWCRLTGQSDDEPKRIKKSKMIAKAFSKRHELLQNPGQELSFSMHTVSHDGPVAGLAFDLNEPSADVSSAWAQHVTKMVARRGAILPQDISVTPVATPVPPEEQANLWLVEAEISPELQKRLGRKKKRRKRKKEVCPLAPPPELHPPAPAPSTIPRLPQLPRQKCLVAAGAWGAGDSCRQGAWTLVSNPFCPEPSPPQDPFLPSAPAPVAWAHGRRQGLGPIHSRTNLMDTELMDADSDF

IC50 [µM]	SMILES
0.012	O=C(Nc1cccnc1-c1ccccc1)N1CCN2C(=O)N([C@H]3C[C@@H]3c3ccccc3)C(=O)C2C1 (mixture of isomers)
0.094	O=C(Nc1ccccc1-c1ccccc1)N1CCN2C(=O)N([C@H]3C[C@@H]3c3ccccc3)C(=O)C2C1 (mixture of isomers)
0.38	CCCCCCNC(=O)N1CCN2C(=O)N([C@H]3C[C@@H]3c3ccccc3)C(=O)C2C1 (mixture of isomers)
> 2.5	O=C(Nc1ccccc1-c1ccccc1)N1CCN2C(=O)N(c3cccc4ccccc34)C(=O)C2C1 (racemic)
0.92	CCCCN(CCCC)C(=O)N1CCN2C(=O)N([C@H]3C[C@@H]3c3ccccc3)C(=O)C2C1 (mixture of isomers)
> 2.5	O=C(Nc1ccccc1-c1ccccc1)N1CCN2C(=O)N(Cc3ccccc3)C(=O)C2C1 (racemic)
0.019	O=C(Nc1cccnc1-c1cccc(Cl)c1)N1CCN2C(=O)N([C@H]3C[C@@H]3c3ccccc3)C(=O)C2C1 (mixture of isomers)
7.8	O=C(Nc1ccnn1-c1ccccc1)N1CCN2C(=O)N([C@H]3C[C@@H]3c3ccccc3)C(=O)CC2C1 (mixture of isomers)
5.1	O=C(Nc1ccnn1-c1ccccc1)N1CCN2CC(=O)N([C@H]3C[C@@H]3c3ccccc3)C(=O)C2C1 (mixture of isomers)
> 2.5	O=C1C2CN(CC3CCCCC3)CCN2C(=O)N1[C@H]1C[C@@H]1c1ccccc1 (mixture of isomers)
1.8	O=C(Nc1ccccc1-c1cnco1)N1CCN2C(=O)N([C@H]3C[C@@H]3c3ccccc3)C(=O)C2C1 (mixture of isomers)
0.68	O=C(Nc1cccnc1-c1ccc(Cl)cc1)N1CCN2C(=O)N([C@H]3C[C@@H]3c3ccccc3)C(=O)C2C1 (mixture of isomers)
0.44	O=C(Nc1ccccc1-c1ccccc1)N1CCN2C(=O)N([C@H]3C[C@H](c4ccccc4)C3)C(=O)C2C1 (mixture of isomers)
> 2.5	O=C(Nc1ccccc1-c1ccccc1)N1CCN2C(=O)N([C@H]3C[C@H]3c3ccccc3)C(=O)C2C1 (mixture of isomers)
> 1.5	O=C(C1CCCCC1)N1CCN2C(=O)N([C@H]3C[C@@H]3c3ccccc3)C(=O)C2C1 (mixture of isomers)
0.084	Cc1cc(C#N)cc(Cl)c1NC(=O)N1CCN2C(=O)N([C@H]3C[C@@H]3c3ccccc3)C(=O)C2C1 (mixture of isomers)
0.89	O=C(Nc1ccc(-c2ccccc2)cc1)N1CCN2C(=O)N([C@H]3C[C@@H]3c3ccccc3)C(=O)C2C1 (mixture of isomers)
1	CN(C(=O)N1CCN2C(=O)N([C@H]3C[C@@H]3c3ccccc3)C(=O)C2C1)c1ccccc1-c1ccccc1 (mixture of isomers)
2	O=C(Nc1ccccc1-c1ccccc1)N1CCN2C(=O)N(CCc3ccccc3)C(=O)C2C1 (racemic)

IC50 [µM]	SMILES
0.047	COc1cccc(-c2ncccc2NC(=O)N2CCN3C(=O)N([C@H]4C[C@@H]4c4ccccc4)C(=O)C3C2)c1 (mixture of isomers)
0.31	O=C(Nc1c(Cl)cc(F)cc1Cl)N1CCN2C(=O)N([C@H]3C[C@@H]3c3ccccc3)C(=O)C2C1 (mixture of isomers)
> 2.5	N#Cc1ccccc1NC(=O)N1CCN2C(=O)N([C@H]3C[C@@H]3c3ccccc3)C(=O)C2C1 (mixture of isomers)
> 2.5	O=C(Nc1ccccc1-c1ccccc1)N1CCN2C(=O)N(C3CC34CCCCC4)C(=O)C2C1 (racemic)
0.14	O=C(Nc1cccnc1-c1ccccc1Cl)N1CCN2C(=O)N([C@H]3C[C@@H]3c3ccccc3)C(=O)C2C1 (mixture of isomers)
0.088	O=C(Nc1cccnc1-c1ccsc1)N1CCN2C(=O)N([C@H]3C[C@@H]3c3ccccc3)C(=O)C2C1 (mixture of isomers)
1.1	COC(=O)c1cccc(NC(=O)N2CCN3C(=O)N([C@H]4C[C@@H]4c4ccccc4)C(=O)C3C2)c1Cl (mixture of isomers)
0.28	O=C(Nc1c(Cl)cccc1Cl)N1CCN2C(=O)N([C@H]3C[C@@H]3c3ccccc3)C(=O)C2C1 (mixture of isomers)
1.1	O=C(Nc1ccc(F)cc1Cl)N1CCN2C(=O)N([C@H]3C[C@@H]3c3ccccc3)C(=O)C2C1 (mixture of isomers)
0.077	CS(=O)(=O)c1cc(Cl)c(NC(=O)N2CCN3C(=O)N([C@H]4C[C@@H]4c4ccccc4)C(=O)C3C2)c(Cl)c1 (mixture of isomers)
1.4	O=C(Nc1ccccc1-c1ccccc1)N1CCN2C(=O)N([C@H]3C[C@@H]3c3ccccc3)CC2C1 (mixture of isomers)
1.7	COc1ccccc1NC(=O)N1CCN2C(=O)N([C@H]3C[C@@H]3c3ccccc3)C(=O)C2C1 (mixture of isomers)
0.48	O=C(Nc1ccc(F)c(Cl)c1Cl)N1CCN2C(=O)N([C@H]3C[C@@H]3c3ccccc3)C(=O)C2C1 (mixture of isomers)
> 2.5	O=C(Nc1ccccc1-c1ccccc1)N1CCN2C(=O)N(c3cccc(-c4ccccc4)c3)C(=O)C2C1 (racemic)
0.7	O=C(Nc1ccc2c(c1)OCO2)N1CCN2C(=O)N([C@H]3C[C@@H]3c3ccccc3)C(=O)C2C1 (mixture of isomers)
0.088	O=C(Nc1ccncc1-c1ccccc1)N1CCN2C(=O)N([C@H]3C[C@@H]3c3ccccc3)C(=O)C2C1 (mixture of isomers)
> 2.5	O=C(NCc1ccco1)N1CCN2C(=O)N([C@H]3C[C@@H]3c3ccccc3)C(=O)C2C1 (mixture of isomers)
0.46	Cc1c(Cl)cccc1NC(=O)N1CCN2C(=O)N([C@H]3C[C@@H]3c3ccccc3)C(=O)C2C1 (mixture of isomers)
0.62	Cn1cc(-c2ncccc2NC(=O)N2CCN3C(=O)N([C@H]4C[C@@H]4c4ccccc4)C(=O)C3C2)cn1 (mixture of isomers)

IC50 [µM]	SMILES
0.062	N#Cc1cc(Cl)c(NC(=O)N2CCN3C(=O)N([C@H]4C[C@@H]4c4ccccc4)C(=O)C3C2)c(Cl)c1 (mixture of isomers)
> 2.5	CN(C)C(=O)N1CCN2C(=O)N([C@H]3C[C@@H]3c3ccccc3)C(=O)C2C1 (mixture of isomers)
0.13	O=C(Nc1c(Cl)cc(OC(F)(F)F)cc1Cl)N1CCN2C(=O)N([C@H]3C[C@@H]3c3ccccc3)C(=O)C2C1 (mixture of isomers)
0.88	O=C(Nc1ccccc1-c1ccccc1)N1CCN2C(=O)N(C3Cc4ccccc4C3)C(=O)C2C1 (racemic)
0.013	O=C(Nc1ccnn1-c1ccccc1)N1CCN2C(=O)N([C@H]3C[C@@H]3c3ccccc3)C(=O)C2C1 (mixture of isomers)
0.89	O=C(Nc1ccccc1C(F)(F)F)N1CCN2C(=O)N([C@H]3C[C@@H]3c3ccccc3)C(=O)C2C1 (mixture of isomers)
0.21	CC(C)c1ccccc1NC(=O)N1CCN2C(=O)N([C@H]3C[C@@H]3c3ccccc3)C(=O)C2C1 (mixture of isomers)
> 1.5	CC(=O)N1CCN2C(=O)N([C@H]3C[C@@H]3c3ccccc3)C(=O)C2C1 (mixture of isomers)
3.2	O=C(Nc1ccccc1-c1ccccc1)c1ccc2c(c1)C(=O)N([C@H]1C[C@@H]1c1ccccc1)C2=O
0.28	O=C(Nc1c(Cl)cc(C(F)(F)F)cc1Cl)N1CCN2C(=O)N([C@H]3C[C@@H]3c3ccccc3)C(=O)C2C1 (mixture of isomers)
0.16	O=C(Nc1cccnc1-c1cccc(C(F)(F)F)c1)N1CCN2C(=O)N([C@H]3C[C@@H]3c3ccccc3)C(=O)C2C1 (mixture of isomers)
0.22	O=C(Nc1cccc(Cl)c1Cl)N1CCN2C(=O)N([C@H]3C[C@@H]3c3ccccc3)C(=O)C2C1 (mixture of isomers)
> 2.5	CCCCN1C(=O)C2CN(C(=O)Nc3ccccc3-c3ccccc3)CCN2C1=O (racemic)
> 1.5	COC(=O)N1CCN2C(=O)N([C@H]3C[C@@H]3c3ccccc3)C(=O)C2C1 (mixture of isomers)
0.22	O=C(Nc1ccccc1-c1ccsc1)N1CCN2C(=O)N([C@H]3C[C@@H]3c3ccccc3)C(=O)C2C1 (mixture of isomers)
0.77	Cc1cccc(Cl)c1NC(=O)N1CCN2C(=O)N([C@H]3C[C@@H]3c3ccccc3)C(=O)C2C1 (mixture of isomers)
0.28	O=C(Nc1cc(Cl)cc(Cl)c1)N1CCN2C(=O)N([C@H]3C[C@@H]3c3ccccc3)C(=O)C2C1 (mixture of isomers)
4	CC(C)(C)C(=O)N1CCN2C(=O)N([C@H]3C[C@@H]3c3ccccc3)C(=O)C2C1 (mixture of isomers)
0.25	O=C(NC1CCCCC1)N1CCN2C(=O)N([C@H]3C[C@@H]3c3ccccc3)C(=O)C2C1 (mixture of isomers)

Tested on: not listed separately
Assay: Intrinsic clearance in rat liver microsomes assessed per mg of protein
Format: ADME, Microsome
Conditions: not given

microsomal CLint [µL/min/mg]	SMILES
> 300	O=C(Nc1ccccc1-c1ccccc1)N1CCN2C(=O)N([C@H]3C[C@@H]3c3ccccc3)C(=O)C2C1 (mixture of isomers)
180	O=C(Nc1cccc(Cl)c1Cl)N1CCN2C(=O)N([C@H]3C[C@@H]3c3ccccc3)C(=O)C2C1 (mixture of isomers)

Tested on: not listed separately
Assay: Growth inhibition of Ptch +/- mouse medulloblastoma cells
Format: functional
Conditions: Medulloblastoma cell

SMILES	CC50 [µM]
O=C(Nc1ccccc1-c1ccccc1)N1CCN2C(=O)N([C@H]3C[C@@H]3c3ccccc3)C(=O)C2C1 (mixture of isomers)	0.012
O=C(Nc1cccc(Cl)c1Cl)N1CCN2C(=O)N([C@H]3C[C@@H]3c3ccccc3)C(=O)C2C1 (mixture of isomers)	0.0033

Target: T1, Protein smoothened
Conditions: Shh Light II; 2 uM
Description: Antagonist activity at smoothened expressed in mouse Shh Light2 cells co-expressing Gli-dependent reporter gene assessed as inhibition of Hh pathway at 2 uM

inhibition	SMILES
Active	CN(C)C(=O)N1CCN2C(=O)N([C@H]3C[C@@H]3c3ccccc3)C(=O)C2C1 (mixture of isomers)

Tested on: Shh Light II
Assay: Cytotoxicity against mouse Shh Light2 cells assessed as cell viability at 2.5 uM
Format: cell-based
Conditions: not given

SMILES	Activity
CN(C)C(=O)N1CCN2C(=O)N([C@H]3C[C@@H]3c3ccccc3)C(=O)C2C1 (mixture of isomers)	Non-toxic
